Measured values as given in publication PMC7998731, “Pharmacokinetic Characterization of Supinoxin and Its Physiologically Based Pharmacokinetic Modeling in Rats” (Pharmaceutics, 2021).
Where two headings read alike, the source gives them in different places.

Columns and labels:
[1] = In vivo pharmacokinetic study, intravenous administration to rats; conditions: rat, plasma; for concentration at 0.083 h / concentration at 0.25 h / concentration at 0.5 h / concentration at 1 h / concentration at 3 h / concentration at 7 h / concentration at 10 h / concentration at 24 h: fasted male SD rats; for concentration at 24 h: BQL treated as 0; for AUC(0-inf) / AUC(0-t) / MRT / clearance / half-life / Vd: male
Description: (§1) Male Sprague Dawley (SD) rats, 6–7 weeks old, were purchased from Orient Bio Inc. (Seongnam-si, Korea) and were used in all in vivo studies. The animals were maintained at a temperature of 20–26 °C with a 12 h light/dark cycle and a relative humidity of 40–60%. The experimental protocols involving the animals used in this study were reviewed by the Animal Care and Use Committee of Chungnam National University (CNU-00576, Daejeon, Korea; approval date: 13 March 2015).
(§2) Supinoxin was dissolved in a vehicle (10% DMSO, 10% Tween 80, 40% PEG 400, and 40% saline). In single doses, the administration routes involved an intravenous bolus via the tail vein (n = 4–5) and an oral gavage dose (n = 4–5). The dosing volume was 2 mL per kg body weight, and the dosing range was 0.5, 1, and 5 mg/kg. Blood samples (200 µL) were collected from the jugular vein at 0.083 (intravenous only), 0.25, 0.5, 1, 3, 7, 10, and 24 h after dosing, using a heparinized syringe to ensure anticoagulation. During blood sampling, rats were placed in a restrainer (Nagai-CFS-1S; NMS, Tokyo, Japan). For the separation of plasma fractions, all blood samples were centrifuged at 17,600× g for 5 min. The samples were stored at −20 °C until analysis. When obtaining tissue concentrations to calculate the tissue-to-plasma partition ratio was necessary, samples of nine tissues (i.e., adipose, heart, muscle, kidney, brain, liver, spleen, gut, and lung) were collected at 0.33, 1, 3, 7, and 24 h after 5 mg/kg intravenous administration of supinoxin (n = 3).
(§3) The peak concentration (Cmax) and the time to reach Cmax (Tmax) were obtained directly from individual plasma concentration–time profiles. Linear trapezoidal rule was used to calculate the areas under the plasma concentration–time curve (AUC) and the first moment curve (AUMC), while the terminal half-life (T1/2) was calculated using 0.693/λ, where λ represents the slope of the log-transformed concentration–time profiles of the terminal phase. The systemic clearance (CL), mean residence time (MRT), and the volume of the distribution at the steady state (Vss) were calculated as follows: dose/AUC, AUMC/AUC, and MRT·CL, respectively. To calculate the absolute oral bioavailability (F) we divided the AUC obtained following oral administration by that obtained following intravenous administration of the respective dose.
(§4) To determine supinoxin concentrations in plasma, feces, and urine, we used a previously reported LC–MS/MS assay using DGG-200064 as an internal standard (IS). Briefly, an aliquot (50 μL) of IS solution (concentration 100 ng/mL) was added to 50 μL of plasma, feces, or urine sample, following which 400 μL of acetonitrile containing 0.1% formic acid was added. After vigorous vortexing for 10 min, the extract was centrifuged at 17,600 rpm for 10 min at 4 °C, and the supernatant was placed in an autosampler vial. An aliquot of 5 µL was then injected into the analytical column for chromatographic separation; the analytical system consisted of a 1200 series HPLC system (Applied Biosystems, Foster City, CA, USA) equipped with a turbo-electrospray interface in positive ionization mode.

[2] = In vivo pharmacokinetic study, oral administration to rats; conditions: Sprague-Dawley, rat, plasma; for concentration at 0.25 h / concentration at 0.5 h / concentration at 1 h / concentration at 3 h / concentration at 7 h / concentration at 10 h / concentration at 24 h: fasted male SD rats; for concentration at 24 h: BQL treated as 0; for AUC(0-inf) / AUC(0-t) / Cmax / MRT / Tmax / half-life / bioavailability: male, rats, oral
Description: as §1, §2, §3, §4

[3] = cited from earlier work; for Plasma concentration, Mean: fasted male SD rats, oral 1 mg/kg, ref 15 (Table 2 footnote)
[4] = Sprague-Dawley, intravenous 0.5 mg/kg
[5] = Sprague-Dawley, intravenous 5 mg/kg
[6] = Sprague Dawley, rats, intravenous, 0.5 mg/kg
[7] = Sprague Dawley, rats, intravenous, 5 mg/kg
[8] = rats, oral, 1 mg/kg, Jeong, J.-W. et al., 2017

SMILES: COc1cc(OC)cc(N2CCN(C(=O)Nc3nc4cc(F)ccc4nc3OC)CC2)c1 [supinoxin, 1-(3,5-Dimethoxyphenyl)-4-[(6-Fluoro-2-Methoxyquinoxalin-3-yl) Aminocarbonyl] Piperazine]
- concentration at 0.083 h [1, 4]: 313 ng/mL
- concentration at 0.25 h [1, 4]: 255 ng/mL
- concentration at 0.5 h [1, 4]: 206 ng/mL
- concentration at 1 h [1, 4]: 140 ng/mL
- concentration at 3 h [1, 4]: 79.3 ng/mL
- concentration at 7 h [1, 4]: 20.8 ng/mL
- concentration at 10 h [1, 4]: 8.2 ng/mL
- concentration at 24 h [1, 4]: 0.3 ng/mL
- concentration at 0.083 h [1, 5]: 2380 ng/mL
- concentration at 0.25 h [1, 5]: 1640 ng/mL
- concentration at 0.5 h [1, 5]: 1310 ng/mL
- concentration at 1 h [1, 5]: 907 ng/mL
- concentration at 3 h [1, 5]: 600 ng/mL
- concentration at 7 h [1, 5]: 234 ng/mL
- concentration at 10 h [1, 5]: 130 ng/mL
- concentration at 24 h [1, 5]: 5.8 ng/mL
- AUC(0-inf) [1, 6]: 727 ± 177 ng·h/mL
- AUC(0-t) [1, 6]: 715 ± 180 ng·h/mL
- MRT [1, 6]: 2.92 ± 0.65 h
- clearance ([1]; Sprague Dawley, rats, intravenous, 0.5 mg/kg, read-out: CL (converted)): 11.9 mL/min/kg
- half-life ([1]; Sprague Dawley, rats, intravenous, 0.5 mg/kg, read-out: T1/2 (converted)): 2.54 ± 0.83 h
- AUC(0-inf) [1, 7]: 6130 ± 1750 ng·h/mL
- AUC(0-t) [1, 7]: 6090 ± 1760 ng·h/mL
- MRT [1, 7]: 4.07 ± 1.37 h
- clearance ([1]; Sprague Dawley, rats, intravenous, 5 mg/kg, read-out: CL (converted)): 14.4 mL/min/kg
- half-life ([1]; Sprague Dawley, rats, intravenous, 5 mg/kg, read-out: T1/2 (converted)): 2.8 ± 0.71 h
- clearance ([1]; Sprague-Dawley, PBPK input parameter, Determined, from intravenous administration study, read-out: In vivo clearance (CLiv)): 3.16 mL/min
- Vd ([1]; Sprague-Dawley, rats, intravenous, 0.5 mg/kg, read-out: Vss): 2.11 ± 0.803 L/kg
- Vd ([1]; Sprague-Dawley, rats, intravenous, 5 mg/kg, read-out: Vss): 3.5 ± 1.45 L/kg
- Vd ([1]; Sprague-Dawley, rats, intravenous, range over doses 0.5–5 mg/kg, read-out: steady state volume of distribution): 2.04 to 3.5 L/kg
- clearance ([1]; Sprague-Dawley, rats, intravenous, range over doses 0.5–5 mg/kg, read-out: systemic clearance): 11.5 to 14.4 mL/min/kg
- half-life ([1]; Sprague-Dawley, rats, intravenous, range over doses 0.5–5 mg/kg, read-out: terminal half-life): 2.54 to 2.8 h
- concentration at 0.25 h ([2]; oral 0.5 mg/kg): 51 ng/mL
- concentration at 0.5 h ([2]; oral 0.5 mg/kg): 99.6 ng/mL
- concentration at 1 h ([2]; oral 0.5 mg/kg): 99.6 ng/mL
- concentration at 3 h ([2]; oral 0.5 mg/kg): 58 ng/mL
- concentration at 7 h ([2]; oral 0.5 mg/kg): 13.1 ng/mL
- concentration at 10 h ([2]; oral 0.5 mg/kg): 5 ng/mL
- concentration at 24 h ([2]; oral 0.5 mg/kg): 0 ng/mL
- concentration at 0.25 h ([2]; oral 5 mg/kg): 474 ng/mL
- concentration at 0.5 h ([2]; oral 5 mg/kg): 676 ng/mL
- concentration at 1 h ([2]; oral 5 mg/kg): 800 ng/mL
- concentration at 3 h ([2]; oral 5 mg/kg): 480 ng/mL
- concentration at 7 h ([2]; oral 5 mg/kg): 113 ng/mL
- concentration at 10 h ([2]; oral 5 mg/kg): 40.4 ng/mL
- concentration at 24 h ([2]; oral 5 mg/kg): 0.5 ng/mL
- AUC(0-inf) ([2]; 0.5 mg/kg): 418 ± 133 ng·h/mL
- AUC(0-t) ([2]; 0.5 mg/kg): 402 ± 130 ng·h/mL
- Cmax ([2]; 0.5 mg/kg): 108 ± 36 ng/mL
- MRT ([2]; 0.5 mg/kg): 2.99 ± 0.71 h
- Tmax ([2]; 0.5 mg/kg): 0.8 ± 0.274 h
- half-life ([2]; 0.5 mg/kg): 2 ± 0.5 h
- bioavailability ([2]; 0.5 mg/kg, read-out: F (absolute oral bioavailability)): 57.4 ± 18.3%
- AUC(0-inf) ([2]; 5 mg/kg): 3510 ± 1420 ng·h/mL
- AUC(0-t) ([2]; 5 mg/kg): 3480 ± 1450 ng·h/mL
- Cmax ([2]; 5 mg/kg): 823 ± 340 ng/mL
- MRT ([2]; 5 mg/kg): 3.17 ± 0.36 h
- Tmax ([2]; 5 mg/kg): 0.75 ± 0.289 h
- half-life ([2]; 5 mg/kg): 2.02 ± 0.33 h
- bioavailability ([2]; 5 mg/kg, read-out: F (absolute oral bioavailability)): 57.2 ± 23.1%
- bioavailability ([2]; range over doses 0.5–5 mg/kg, read-out: absolute oral bioavailability): 56.9 to 57.4%
- Plasma concentration, Mean ([3]; 0.25 h): 211.9 ng/mL
- Plasma concentration, Mean ([3]; 0.5 h): 233.6 ng/mL
- Plasma concentration, Mean ([3]; 1 h): 231.2 ng/mL
- Plasma concentration, Mean ([3]; 3 h): 122.2 ng/mL
- Plasma concentration, Mean ([3]; 7 h): 34.9 ng/mL
- Plasma concentration, Mean ([3]; 10 h): 13.7 ng/mL
- Plasma concentration, Mean ([3]; 24 h, BQL treated as 0): 0.3 ng/mL
- AUCinf [3, 8]: 1010 ± 420 ng·h/mL
- AUClast [3, 8]: 984 ± 407 ng·h/mL
- Cmax [3, 8]: 250 ± 93 ng/mL
- F (absolute oral bioavailability) [3, 8]: 56.9 ± 23.7%
- MRT [3, 8]: 3.15 ± 1.26 h
- T1/2 [3, 8]: 2.11 ± 0.91 h
- Tmax [3, 8]: 0.650 ± 0.337 h
